In ChEMBL document CHEMBL1629460, “Image-based high-throughput drug screening targeting the intracellular stage of Trypanosoma cruzi, the agent of Chagas' disease” (Antimicrob Agents Chemother, 2010):

What was measured:
[1] = Cytotoxicity against BESM cells after 88 hrs by HTS assay; type: ADME, cell-based; conditions: Bos taurus
Trypanosoma cruzi [2] = assay: Antitrypanosomal activity against Trypanosoma cruzi Sylvio-X10/7 infected in BESM cells measured after 88 hrs postinfection by HTS assay; type: functional, organism-based; conditions: Sylvio-X10/7, BESM
Trypanosoma cruzi [3] = assay: Antitrypanosomal activity against Trypanosoma cruzi PSD-I infected in BESM cells measured after 88 hrs postinfection by HTS assay; type: functional, organism-based
Trypanosoma cruzi [4] = assay: Antitrypanosomal activity against Trypanosoma cruzi CA-I/72 infected in BESM cells measured after 88 hrs postinfection by HTS assay; type: functional, organism-based; conditions: CA-I/72, BESM
Trypanosoma cruzi [5] = assay: Antitrypanosomal activity against Trypanosoma cruzi amastigotes infected in BESM cells measured after 88 hrs postinfection by HTS assay; type: functional, organism-based
[6] = Selectivity window, ratio of EC50 for BESM cells to EC50 for Trypanosoma cruzi amastigotes infected in BESM cells; design: reference not given here

Row | SMILES | EC50 [1] | EC50 (Trypanosoma cruzi [2]) | EC50 (Trypanosoma cruzi [3]) | EC50 (Trypanosoma cruzi [4]) | EC50 (Trypanosoma cruzi [5]) | Ratio EC50 [6]
1 | CC[C@@H]([C@H](C)O)n1ncn(-c2ccc(N3CCN(c4ccc(OC[C@@H]5CO[C@@](Cn6cncn6)(c6ccc(F)cc6F)C5)cc4)CC3)cc2)c1=O [POSACONAZOLE] | > 2 µM | 0.08 µM | 0.13 µM | 0.2 µM |  | 
2 | CC1CS(=O)(=O)CCN1/N=C/c1ccc([N+](=O)[O-])o1 (stereo not drawn) [NIFURTIMOX] | > 10 µM | 0.7 µM | 2.1 µM | 1.2 µM |  | 
3 | CN1CCN(C(=O)N[C@@H](Cc2ccccc2)C(=O)N[C@H](/C=C/S(=O)(=O)c2ccccc2)CCc2ccccc2)CC1 [K-777] | > 20 µM | 3 µM | 3 µM | 4.2 µM |  | 
4 | CN1C[C@H](CNC(=O)OCc2ccccc2)C[C@@H]2c3cccc4c3c(cn4C)C[C@H]21 [METERGOLINE] | 18 µM |  |  |  | 4 µM | 4.5
5 | Cc1ccc(/N=C/N(C)/C=N/c2ccc(C)cc2C)c(C)c1 [AMITRAZ] | 33 µM |  |  |  | 16 µM | 2.1
